# Measurements reported in paper PMC9934367, “Functional impact of subunit composition and compensation on Drosophila melanogaster nicotinic receptors–targets of neonicotinoids” (PLOS Genetics, 2023).
# Tested on: D. melanogaster nAChRs
# Assay: Comparison of agonist activity between nAChRs expressed in X. laevis oocytes (one-way ANOVA, Kruskal-Wallis)
# Assay type: cell-based
# Method in brief: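 D. melanogaster nAChR subunits and co-factors expressed in X. laevis oocytes by cRNA injection, recorded after 3–4 days by two-electrode voltage clamp at −100 mV in saline with 0.5 μM atropine. Peak currents fitted to a Hill equation for EC50; pEC50 differences tested by one-way ANOVA or Kruskal-Wallis.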
# [1] = Dα1/Dα2/Dα3/Dβ1/Dβ2 vs. Dα1/Dα2/Dβ1/Dβ2/Dβ3
# [2] = Dα1/Dα2/Dα3/Dβ1/Dβ2 vs. Dα1/Dα3/Dα4/Dβ1/Dβ2
# [3] = Dα1/Dα2/Dα3/Dβ1/Dβ2 vs. Dα1/Dα3/Dβ1/Dβ2/Dβ3
# [4] = Dα1/Dα2/Dα3/Dβ1/Dβ2 vs. Dα2/Dα3/Dα4/Dβ1/Dβ2
# [5] = Dα1/Dα2/Dα3/Dβ1/Dβ2 vs. Dα2/Dα3/Dβ1/Dβ2/Dβ3
# [6] = Dα1/Dα2/Dα3/Dβ1 vs. Dα1/Dα2/Dα3/Dβ1/Dβ2
# [7] = Dα1/Dα2/Dα3/Dβ1 vs. Dα1/Dα2/Dβ1/Dβ2
# [8] = Dα1/Dα2/Dα3/Dβ1 vs. Dα1/Dα3/Dβ1/Dβ2
# [9] = Dα1/Dα2/Dα3/Dβ1 vs. Dα1/Dβ1/Dβ2
# [10] = Dα1/Dα2/Dα3/Dβ1 vs. Dα2/Dα3/Dβ1/Dβ2
# [11] = Dα1/Dα2/Dα3/Dβ1 vs. Dα3/Dβ1/Dβ2
# [12] = Dα1/Dα2/Dβ1/Dβ2 vs. Dα1/Dα2/Dα3/Dβ1/Dβ2
# [13] = Dα1/Dα2/Dβ1/Dβ2 vs. Dα2/Dα3/Dβ1/Dβ2
# [14] = Dα1/Dα2/Dβ1 vs. Dα1/Dα2/Dα3/Dβ1
# [15] = Dα1/Dα2/Dβ1 vs. Dα1/Dα2/Dα3/Dβ1/Dβ2
# [16] = Dα1/Dα2/Dβ1 vs. Dα1/Dα2/Dβ1/Dβ2
# [17] = Dα1/Dα2/Dβ1 vs. Dα1/Dα3/Dβ1/Dβ2
# [18] = Dα1/Dα2/Dβ1 vs. Dα2/Dα3/Dβ1/Dβ2
# [19] = Dα1/Dα3/Dβ1/Dβ2 vs. Dα1/Dα2/Dα3/Dβ1/Dβ2
# [20] = Dα1/Dα3/Dβ1/Dβ2 vs. Dα1/Dα2/Dβ1/Dβ2
# [21] = Dα1/Dα3/Dβ1/Dβ2 vs. Dα2/Dα3/Dβ1/Dβ2
# [22] = Dα1/Dα3/Dβ1 vs. Dα1/Dα2/Dα3/Dβ1
# [23] = Dα1/Dα3/Dβ1 vs. Dα1/Dα2/Dα3/Dβ1/Dβ2
# [24] = Dα1/Dα3/Dβ1 vs. Dα1/Dα2/Dβ1/Dβ2
# [25] = Dα1/Dα3/Dβ1 vs. Dα1/Dα3/Dβ1/Dβ2
# [26] = Dα1/Dα3/Dβ1 vs. Dα2/Dα3/Dβ1/Dβ2
# [27] = Dα1/Dβ1/Dβ2 vs. Dα1/Dα2/Dα3/Dβ1/Dβ2
# [28] = Dα1/Dβ1/Dβ2 vs. Dα1/Dα2/Dβ1/Dβ2
# [29] = Dα1/Dβ1/Dβ2 vs. Dα1/Dα3/Dβ1/Dβ2
# [30] = Dα1/Dβ1/Dβ2 vs. Dα2/Dα3/Dβ1/Dβ2
# [31] = Dα1/Dβ1 vs. Dα1/Dα2/Dα3/Dβ1/Dβ2
# [32] = Dα2/Dα3/Dβ1/Dβ2 vs. Dα1/Dα2/Dα3/Dβ1/Dβ2
# [33] = Dα2/Dα3/Dβ1 vs. Dα1/Dα2/Dα3/Dβ1
# [34] = Dα2/Dα3/Dβ1 vs. Dα1/Dα2/Dα3/Dβ1/Dβ2
# [35] = Dα2/Dα3/Dβ1 vs. Dα1/Dα2/Dβ1/Dβ2
# [36] = Dα2/Dα3/Dβ1 vs. Dα1/Dα3/Dβ1/Dβ2
# [37] = Dα2/Dα3/Dβ1 vs. Dα2/Dα3/Dβ1/Dβ2
# [38] = Dα3/Dβ1/Dβ2 vs. Dα1/Dα2/Dα3/Dβ1/Dβ2
# [39] = Dα3/Dβ1/Dβ2 vs. Dα1/Dα2/Dβ1/Dβ2
# [40] = Dα3/Dβ1/Dβ2 vs. Dα1/Dα3/Dβ1/Dβ2
# [41] = Dα3/Dβ1/Dβ2 vs. Dα2/Dα3/Dβ1/Dβ2
# [42] = Dα3/Dβ1 vs. Dα1/Dα2/Dα3/Dβ1/Dβ2
smiles,measurement,setting,value
"O=[N+]([O-])NC1=NCCN1Cc1ccc(Cl)nc1 [Imidacloprid, imidacloprid]","Difference of Imax values, nAChRs compared",Dα1/Dα2/Dα3/Dβ1/Dβ2 vs. Dα1/Dα2/Dα4/Dβ1/Dβ2,-0.030
same,"Difference of Imax values, nAChRs compared",[1],0.062
same,"Difference of pEC50 values, nAChRs compared",[1],0.21
same,"Difference of Imax values, nAChRs compared",[2],0.041
same,"Difference of pEC50 values, nAChRs compared",[2],-0.83
same,"Difference of Imax values, nAChRs compared",[3],0.002
same,"Difference of pEC50 values, nAChRs compared",[3],-1.25
same,"Difference of Imax values, nAChRs compared",[4],0.115
same,"Difference of pEC50 values, nAChRs compared",[4],-0.93
same,"Difference of Imax values, nAChRs compared",[5],0.121
same,"Difference of pEC50 values, nAChRs compared",[5],-1.28
same,Difference of Imax values,[6],-0.048
same,Difference of pEC50 values,[6],0.61
same,Difference of Imax values,[7],-0.071
same,Difference of pEC50 values,[7],0.63
same,Difference of Imax values,[8],-0.236
same,Difference of pEC50 values,[8],-0.44
same,Difference of Imax values,[9],0.018
same,Difference of pEC50 values,[9],0.09
same,Difference of Imax values,[10],-0.031
same,Difference of pEC50 values,[10],0.08
same,Difference of Imax values,[11],0.055
same,Difference of pEC50 values,[11],-1.20
same,Difference of Imax values,[12],0.023
same,Difference of pEC50 values,[12],-0.02
same,Difference of Imax values,[13],0.040
same,Difference of pEC50 values,[13],-0.55
same,Difference of Imax values,[14],-0.063
same,Difference of pEC50 values,[14],-0.37
same,Difference of Imax values,[15],-0.111
same,Difference of pEC50 values,[15],0.24
same,Difference of Imax values,[16],-0.134
same,Difference of pEC50 values,[16],0.26
same,Difference of Imax values,[17],-0.299
same,Difference of pEC50 values,[17],-0.81
same,Difference of Imax values,Dα1/Dα2/Dβ1 vs. Dα1/Dβ1/Dβ2,-0.045
same,Difference of pEC50 values,Dα1/Dα2/Dβ1 vs. Dα1/Dβ1/Dβ2,-0.28
same,Difference of Imax values,Dα1/Dα2/Dβ1 vs. Dα2/Dα3/Dβ1,-0.070
same,Difference of pEC50 values,Dα1/Dα2/Dβ1 vs. Dα2/Dα3/Dβ1,-0.17
same,Difference of Imax values,[18],-0.094
same,Difference of pEC50 values,[18],-0.29
same,Difference of Imax values,Dα1/Dα2/Dβ1 vs. Dα3/Dβ1/Dβ2,-0.008
same,Difference of pEC50 values,Dα1/Dα2/Dβ1 vs. Dα3/Dβ1/Dβ2,-1.57
same,Difference of Imax values,[19],0.188
same,Difference of pEC50 values,[19],1.05
same,Difference of Imax values,[20],0.165
same,Difference of pEC50 values,[20],1.07
same,Difference of Imax values,[21],0.205
same,Difference of pEC50 values,[21],0.52
same,Difference of Imax values,[22],0.076
same,Difference of pEC50 values,[22],0.50
same,Difference of Imax values,[23],0.028
same,Difference of pEC50 values,[23],1.11
same,Difference of Imax values,Dα1/Dα3/Dβ1 vs. Dα1/Dα2/Dβ1,0.139
same,Difference of pEC50 values,Dα1/Dα3/Dβ1 vs. Dα1/Dα2/Dβ1,0.87
same,Difference of Imax values,[24],0.005
same,Difference of pEC50 values,[24],1.13
same,Difference of Imax values,[25],-0.160
same,Difference of pEC50 values,[25],0.06
same,Difference of Imax values,Dα1/Dα3/Dβ1 vs. Dα1/Dβ1/Dβ2,0.094
same,Difference of pEC50 values,Dα1/Dα3/Dβ1 vs. Dα1/Dβ1/Dβ2,0.59
same,Difference of Imax values,Dα1/Dα3/Dβ1 vs. Dα2/Dα3/Dβ1,0.069
same,Difference of pEC50 values,Dα1/Dα3/Dβ1 vs. Dα2/Dα3/Dβ1,0.70
same,Difference of Imax values,[26],0.045
same,Difference of pEC50 values,[26],0.58
same,Difference of Imax values,Dα1/Dα3/Dβ1 vs. Dα3/Dβ1/Dβ2,0.131
same,Difference of pEC50 values,Dα1/Dα3/Dβ1 vs. Dα3/Dβ1/Dβ2,-0.70
same,Difference of Imax values,[27],-0.066
same,Difference of pEC50 values,[27],0.52
same,Difference of Imax values,[28],-0.089
same,Difference of pEC50 values,[28],0.54
same,Difference of Imax values,[29],-0.254
same,Difference of pEC50 values,[29],-0.53
same,Difference of Imax values,[30],-0.049
same,Difference of pEC50 values,[30],-0.01
same,Difference of Imax values,Dα1/Dβ1/Dβ2 vs. Dα3/Dβ1/Dβ2,0.037
same,Difference of pEC50 values,Dα1/Dβ1/Dβ2 vs. Dα3/Dβ1/Dβ2,-1.29
same,Difference of Imax values,Dα1/Dβ1 vs. Dα1/Dα2/Dα3/Dβ1,0.028
same,Difference of pEC50 values,Dα1/Dβ1 vs. Dα1/Dα2/Dα3/Dβ1,0.08
same,Difference of Imax values,[31],-0.020
same,Difference of pEC50 values,[31],0.69
same,Difference of Imax values,Dα1/Dβ1 vs. Dα1/Dα2/Dβ1,0.091
same,Difference of pEC50 values,Dα1/Dβ1 vs. Dα1/Dα2/Dβ1,0.45
same,Difference of Imax values,Dα1/Dβ1 vs. Dα1/Dα2/Dβ1/Dβ2,-0.043
same,Difference of pEC50 values,Dα1/Dβ1 vs. Dα1/Dα2/Dβ1/Dβ2,0.71
same,Difference of Imax values,Dα1/Dβ1 vs. Dα1/Dα3/Dβ1,-0.048
same,Difference of pEC50 values,Dα1/Dβ1 vs. Dα1/Dα3/Dβ1,-0.42
same,Difference of Imax values,Dα1/Dβ1 vs. Dα1/Dα3/Dβ1/Dβ2,-0.208
same,Difference of pEC50 values,Dα1/Dβ1 vs. Dα1/Dα3/Dβ1/Dβ2,-0.36
same,Difference of Imax values,Dα1/Dβ1 vs. Dα1/Dβ1/Dβ2,0.046
same,Difference of pEC50 values,Dα1/Dβ1 vs. Dα1/Dβ1/Dβ2,0.17
same,Difference of Imax values,Dα1/Dβ1 vs. Dα2/Dα3/Dβ1,0.021
same,Difference of pEC50 values,Dα1/Dβ1 vs. Dα2/Dα3/Dβ1,0.28
same,Difference of Imax values,Dα1/Dβ1 vs. Dα2/Dα3/Dβ1/Dβ2,-0.003
same,Difference of pEC50 values,Dα1/Dβ1 vs. Dα2/Dα3/Dβ1/Dβ2,0.16
same,Difference of Imax values,Dα1/Dβ1 vs. Dα3/Dβ1,0.090
same,Difference of pEC50 values,Dα1/Dβ1 vs. Dα3/Dβ1,-1.16
same,Difference of Imax values,Dα1/Dβ1 vs. Dα3/Dβ1/Dβ2,0.083
same,Difference of pEC50 values,Dα1/Dβ1 vs. Dα3/Dβ1/Dβ2,-1.12
same,Difference of Imax values,[32],-0.017
same,Difference of pEC50 values,[32],0.53
same,Difference of Imax values,[33],0.007
same,Difference of pEC50 values,[33],-0.20
same,Difference of Imax values,[34],-0.041
same,Difference of pEC50 values,[34],0.41
same,Difference of Imax values,[35],-0.064
same,Difference of pEC50 values,[35],0.43
same,Difference of Imax values,[36],-0.229
same,Difference of pEC50 values,[36],-0.64
same,Difference of Imax values,Dα2/Dα3/Dβ1 vs. Dα1/Dβ1/Dβ2,0.025
same,Difference of pEC50 values,Dα2/Dα3/Dβ1 vs. Dα1/Dβ1/Dβ2,-0.11
same,Difference of Imax values,[37],-0.024
same,Difference of pEC50 values,[37],-0.12
same,Difference of Imax values,Dα2/Dα3/Dβ1 vs. Dα3/Dβ1/Dβ2,0.062
same,Difference of pEC50 values,Dα2/Dα3/Dβ1 vs. Dα3/Dβ1/Dβ2,-1.40
same,Difference of Imax values,[38],-0.103
same,Difference of pEC50 values,[38],1.81
same,Difference of Imax values,[39],-0.126
same,Difference of pEC50 values,[39],1.83
same,Difference of Imax values,[40],-0.291
same,Difference of pEC50 values,[40],0.76
same,Difference of Imax values,[41],-0.086
same,Difference of pEC50 values,[41],1.28
same,Difference of Imax values,Dα3/Dβ1 vs. Dα1/Dα2/Dα3/Dβ1,-0.062
same,Difference of pEC50 values,Dα3/Dβ1 vs. Dα1/Dα2/Dα3/Dβ1,1.24
same,Difference of Imax values,[42],-0.110
same,Difference of pEC50 values,[42],1.85
same,Difference of Imax values,Dα3/Dβ1 vs. Dα1/Dα2/Dβ1,0.001
same,Difference of pEC50 values,Dα3/Dβ1 vs. Dα1/Dα2/Dβ1,1.61
same,Difference of Imax values,Dα3/Dβ1 vs. Dα1/Dα2/Dβ1/Dβ2,-0.133
same,Difference of pEC50 values,Dα3/Dβ1 vs. Dα1/Dα2/Dβ1/Dβ2,1.87
same,Difference of Imax values,Dα3/Dβ1 vs. Dα1/Dα3/Dβ1,-0.138
same,Difference of pEC50 values,Dα3/Dβ1 vs. Dα1/Dα3/Dβ1,0.74
same,Difference of Imax values,Dα3/Dβ1 vs. Dα1/Dα3/Dβ1/Dβ2,-0.298
same,Difference of pEC50 values,Dα3/Dβ1 vs. Dα1/Dα3/Dβ1/Dβ2,0.80
same,Difference of Imax values,Dα3/Dβ1 vs. Dα1/Dβ1/Dβ2,-0.044
same,Difference of pEC50 values,Dα3/Dβ1 vs. Dα1/Dβ1/Dβ2,1.33
same,Difference of Imax values,Dα3/Dβ1 vs. Dα2/Dα3/Dβ1,-0.069
same,Difference of pEC50 values,Dα3/Dβ1 vs. Dα2/Dα3/Dβ1,1.44
same,Difference of Imax values,Dα3/Dβ1 vs. Dα2/Dα3/Dβ1/Dβ2,-0.093
same,Difference of pEC50 values,Dα3/Dβ1 vs. Dα2/Dα3/Dβ1/Dβ2,1.32
same,Difference of Imax values,Dα3/Dβ1 vs. Dα3/Dβ1/Dβ2,-0.007
same,Difference of pEC50 values,Dα3/Dβ1 vs. Dα3/Dβ1/Dβ2,0.04
